Where a name gives a salt, the structure may show the parent alone.
The compounds below were run on Nrf2 transcriptional activity (pARE-Luc reporter) in HepG2 cells (assay: In vitro Nrf2 transcriptional activity measurement by ARE-dependent reporter assay in HepG2 cell). Conditions: Homo sapiens; HepG2 cells transfected with pARE-Luc, 4 hours at 37° C.; luciferase activity of Example 1-54 or Example 17-23 at 3.75 μM defined as 100%.
Assay type: cell-based, human
Summary of the method: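 Luminescence readout (Bright-Glo) after 4 h, 37° C compound exposure of HepG2 cells carrying the ARE-luciferase vector pGL4.37. Each well converted to % response versus reference compound at 3.75 μM, and EC50 derived from dose-response curves.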

Q: For `COC1CC2(C1)CN(c1cc(Cl)c(C(=O)N3COc4c(cccc4-c4cc(N5C6CCC5COC6)c(C(=O)O)cc4F)C3)c3nc(C)n(C)c13)C2` [Compound 19-16, 4-[3-[5-Chloro-7-(6-methoxy-2-azaspiro[3.3]heptan-2-yl)-1,2-dimethylbenzimidazole-4-carbonyl]-2,4-dihydro-1,3-benzoxazin-8-yl]-5-fluoro-2-(3-oxa-8-azabicyclo[3.2.1]octan-8-yl)benzoic acid], which EC50 is on record?
A: 17 nM

Q: How did the EC50 turn out when `CN1CCC2(CC1)CN(c1cc(Cl)c(C(=O)N3COc4c(cccc4-c4cc(N5C6CCC5COC6)c(C(=O)O)cc4F)C3)c(Cl)c1)C2` [Compound 19-17, 4-[3-[2,6-Dichloro-4-(7-methyl-2,7-diazaspiro[3.5]nonan-2-yl)benzoyl]-2,4-dihydro-1,3-benzoxazin-8-yl]-5-fluoro-2-(3-oxa-8-azabicyclo[3.2.1]octan-8-yl)benzoic acid] was run?
A: 6.1 nM

Q: How did the EC50 turn out when `CC[C@@H]1CN(C)CCN1c1cc(Cl)c(C(=O)N2COc3c(cccc3-c3cc(N4C5CCC4COC5)c(C(=O)O)cc3F)C2)c(Cl)c1` [Compound 19-18, 4-[3-[2,6-Dichloro-4-[(2R)-2-ethyl-4-methylpiperazin-1-yl]benzoyl]-2,4-dihydro-1,3-benzoxazin-8-yl]-5-fluoro-2-(3-oxa-8-azabicyclo[3.2.1]octan-8-yl)benzoic acid] was run?
A: 1.3 nM

Q: How did the EC50 turn out when `COC[C@@H]1CN(C)CCN1c1cc(Cl)c(C(=O)N2COc3c(cccc3-c3cc(N4C5CCC4COC5)c(C(=O)O)cc3F)C2)c(Cl)c1` [Compound 19-19, 4-[3-[2,6-Dichloro-4-[(2S)-2-(methoxymethyl)-4-methylpiperazin-1-yl]benzoyl]-2,4-dihydro-1,3-benzoxazin-8-yl]-5-fluoro-2-(3-oxa-8-azabicyclo[3.2.1]octan-8-yl)benzoic acid] was run?
A: 2.6 nM

Q: `Cn1cc(-c2cc(Cl)c(C(=O)N3COc4c(cccc4-c4cc(N5C6COCC5C6)c(C(=O)O)cc4F)C3)c(Cl)c2)cn1` [Compound 20-1, 4-[3-[2,6-Dichloro-4-(1-methylpyrazol-4-yl)benzoyl]-2,4-dihydro-1,3-benzoxazin-8-yl]-5-fluoro-2-(3-oxa-6-azabicyclo[3.1.1]heptan-6-yl)benzoic acid N,N-diethylethanamine salt] was tested. Which EC50 did it give?
A: 850 nM

Q: `CN1C[C@H]2CC[C@@H]1CN2c1cc(Cl)c(C(=O)N2COc3c(cccc3-c3cc(N4C5CCC4COC5)c(C(=O)O)cc3F)C2)c(Cl)c1` [Compound 20-2, 4-[3-[2,6-Dichloro-4-[(1R,4R)-5-methyl-2,5-diazabicyclo[2.2.2]octan-2-yl]benzoyl]-2,4-dihydro-1,3-benzoxazin-8-yl]-5-fluoro-2-(3-oxa-8-azabicyclo[3.2.1]octan-8-yl)benzoic acid] was tested. Which EC50 did it give?
A: 24 nM

Q: How did the EC50 turn out when `CN1C[C@@H]2CC[C@H]1CN2c1cc(Cl)c(C(=O)N2COc3c(cccc3-c3cc(N4C5CCC4COC5)c(C(=O)O)cc3F)C2)c(Cl)c1` [Compound 20-3, 4-[3-[2,6-Dichloro-4-[(1S,4S)-5-methyl-2,5-diazabicyclo[2.2.2]octan-2-yl]benzoyl]-2,4-dihydro-1,3-benzoxazin-8-yl]-5-fluoro-2-(3-oxa-8-azabicyclo[3.2.1]octan-8-yl)benzoic acid] was run?
A: 40 nM

Q: `CN1C2CC1CN(c1cc(Cl)c(C(=O)N3COc4c(cccc4-c4cc(N5C6CCC5COC6)c(C(=O)O)cc4F)C3)c(Cl)c1)C2` [Compound 20-4, 4-[3-[2,6-Dichloro-4-(6-methyl-3,6-diazabicyclo[3.1.1]heptan-3-yl)benzoyl]-2,4-dihydro-1,3-benzoxazin-8-yl]-5-fluoro-2-(3-oxa-8-azabicyclo[3.2.1]octan-8-yl)benzoic acid] was tested. Which EC50 did it give?
A: 150 nM

Q: Which EC50 does the source give for `O=C(O)c1cc(F)c(-c2cccc3c2OCN(C(=O)c2c(Cl)cc(N4CC5CC(C4)N5C4COC4)cc2Cl)C3)cc1N1C2CCC1COC2` [Compound 20-5, 4-[3-[2,6-Dichloro-4-[6-(oxetan-3-yl)-3,6-diazabicyclo[3.1.1]heptan-3-yl]benzoyl]-2,4-dihydro-1,3-benzoxazin-8-yl]-5-fluoro-2-(3-oxa-8-azabicyclo[3.2.1]octan-8-yl)benzoic acid] here?
A: 75 nM

Q: Which EC50 does the source give for `O=C(O)c1cc(F)c(-c2cccc3c2OCN(C(=O)c2c(Cl)cc(N4C5CC4CN(C4COC4)C5)cc2Cl)C3)cc1N1C2CCC1COC2` [Compound 20-6, 4-[3-[2,6-Dichloro-4-[3-(oxetan-3-yl)-3,6-diazabicyclo[3.1.1]heptan-6-yl]benzoyl]-2,4-dihydro-1,3-benzoxazin-8-yl]-5-fluoro-2-(3-oxa-8-azabicyclo[3.2.1]octan-8-yl)benzoic acid] here?
A: 48 nM

Q: `COCCN1C[C@@H]2C[C@H]1CN2c1cc(Cl)c(C(=O)N2COc3c(cccc3-c3cc(N4C5CCC4COC5)c(C(=O)O)cc3F)C2)c(Cl)c1` [Compound 20-7, 4-[3-[2,6-Dichloro-4-[(1S,4S)-5-(2-methoxyethyl)-2,5-diazabicyclo[2.2.1]heptan-2-yl]benzoyl]-2,4-dihydro-1,3-benzoxazin-8-yl]-5-fluoro-2-(3-oxa-8-azabicyclo[3.2.1]octan-8-yl)benzoic acid] was tested. Which EC50 did it give?
A: 14 nM

Q: `O=C(O)c1cc(F)c(-c2cccc3c2OCN(C(=O)c2c(Cl)cc(N4CCNCC4)cc2Cl)C3)cc1N1C2CCC1COC2` [Compound 20-8, 4-[3-(2,6-Dichloro-4-piperazin-1-ylbenzoyl)-2,4-dihydro-1,3-benzoxazin-8-yl]-5-fluoro-2-(3-oxa-8-azabicyclo[3.2.1]octan-8-yl)benzoic acid] was tested. Which EC50 did it give?
A: 18 nM

Q: `CN1CCN(c2cc(Cl)c(C(=O)N3COc4c(cccc4-c4cc(N5C6CCC5COC6)c(C(=O)O)cc4F)C3)c(Cl)c2)CC12CC2` [Compound 20-9, 4-[3-[2,6-Dichloro-4-(4-methyl-4,7-diazaspiro[2.5]octan-7-yl)benzoyl]-2,4-dihydro-1,3-benzoxazin-8-yl]-5-fluoro-2-(3-oxa-8-azabicyclo[3.2.1]octan-8-yl)benzoic acid] was tested. Which EC50 did it give?
A: 14 nM

Q: `Cc1cnn(C2CN(c3cc(Cl)c(C(=O)N4COc5c(cccc5-c5cc(N6C7CCC6COC7)c(C(=O)O)cc5F)C4)c(Cl)c3)C2)c1` [Compound 20-13, 4-[3-[2,6-Dichloro-4-[3-(4-methylpyrazol-1-yl)azetidin-1-yl]benzoyl]-2,4-dihydro-1,3-benzoxazin-8-yl]-5-fluoro-2-(3-oxa-8-azabicyclo[3.2.1]octan-8-yl)benzoic acid] was tested. Which EC50 did it give?
A: 5.5 nM

Source: patent US20250171457A1, “NITROGEN-CONTAINING HETEROCYCLIC COMPOUND HAVING NRF2 ACTIVATION EFFECT” (CHUGAI SEIYAKU KABUSHIKI KAISHA, priority 2022, published 2025)
